One series is described as follows: Water solubility. Conditions: relative to RM-581-OH. The format is physicochemical.
For series [1], the system named is LAPC-4 (prostate cancer) cells. Put plainly: Cell proliferation assay (MTS), LAPC-4. Conditions: Homo sapiens, LAPC4, 72 h, 3 days treatment, MTS; read-out: IC50 (μM) Prostate cancer LAPC-4. The format is cell-based. On the procedure:
(§1) The different aminosteroids were dissolved in methanol (50 mM).

A short description of series [2]: Metabolic stability assay, human liver microsomes. To be noted: 10 μM, 1 h, 40 μg human liver microsomes; result in words. (Liver microsomes are a subcellular fraction often used to study metabolism.)
Procedure: (§2) Assays were performed at 37° C. for 1 h, with or without 10 mM NADPH in the presence of 40 μg of human liver microsome from Corning (Melrose, Mass., USA) and 10 μM of aminosteroid substrate in a final 100 μL volume of 50 mM Tris buffer (pH 7.4) supplemented with 10 mM MgCl2. Assays were ended by adding 100 μL of MeOH followed by centrifugation at 13,000 g for 10 min to obtain a pellet of proteins. The supernatant of 2 assays was pooled and submitted to HPLC-MS analysis (Shimadzu LCMS-2020 APCI, Alltima HP C18 (250 mm×4.6 mm, 5 μm) column, MeOH:H2O gradient). Remaining substrate (expressed in %) was calculated by dividing the area under the curve of the substrate for the assays without NADPH by the area under the curve of the substrate for the assays with NADPH and multiplied by 100. Values represent the average of 2 independent experiments.
Series [3] deals with OVCAR-3 cells (ovarian cancer). Put plainly: Cell proliferation assay (MTS), OVCAR-3. The format is cell-based. Conditions: Homo sapiens, OVCAR-3, 72 h, 3 days treatment, MTS; read-out: IC50 (μM) Ovarian cancer OVCAR-3. On the procedure: as §1
The subject of series [4] is Human pancreas cancer cells (PANC-1). Put plainly: Cell proliferation assay (MTS), PANC-1. To be noted: Homo sapiens, PANC-1, 72 h, 3 days treatment, MTS; read-out: IC50 (μM) Pancreatic cancer PANC-1. In kind it is cell-based. Here is the method:
as §1

Series [5] relates to LNCaP (prostate cancer) cells. Put plainly: Cell proliferation assay (MTS), LNCaP. The format is cell-based. To be noted: Homo sapiens, 72 h, read-out: IC50 (μM) Prostate cancer LNCaP. On the procedure: as §1
Series [6] relates to PC-3 (prostate cancer) cells. Put plainly: Cell proliferation assay (MTS), PC-3. In kind it is cell-based. To be noted: 72 h, read-out: IC50 (μM) Prostate cancer PC-3. Here is the method:
as §1

Series [7] concerns PANC-1, BxPC-3, Hs766, OVCAR-3, Caov3, SKOV3, MCF-7, T-47D and LAPC-4 cell lines. The series can be described thus: Cytotoxic activity screening at 5 and 1 μM on cancer cell lines. Conditions: independently of the cancer cell line tested, result in words.
Procedure: The cell proliferation assay was performed using 3-(4,5-dimethylthiazol-2-yl)-5-(3-carboxymethoxyphenyl)2-(4-sulfophenyl)-2H-tetrazolium (MTS) (Cell Titer 96 Aqueous, Promega, Nepean, ON, Canada) as previously described [3, 4, 5]. Briefly, cells were plated in triplicate in 96-well plates (1×10^4 cells/well) in appropriate culture medium (total of 90 μL). Before each treatment, the cells were incubated at 37° C. in a 5% CO2 humidified atmosphere for 24 h. The different aminosteroids were dissolved in methanol (50 mM). The stock solutions were diluted at multiple concentrations with culture media in order to obtain the desired final concentration followed by the addition of 10 μL to each well, and the mixture incubated for 3 days. Following treatment, MTS (10 μL) was added to each well and the mixture was incubated for 4 h.
The test system of series [8] is T-47D breast cancer cell line. Put plainly: Cell proliferation assay (MTS), T-47D. Conditions: 72 h; for IC50: Homo sapiens, T47D, 3 days treatment, MTS. In kind it is cell-based. Here is the method: as §1
In series [9] the test system is MCF-7 breast cancer cells. The series can be described thus: Cell proliferation assay (MTS), MCF-7. In kind it is cell-based, human. To be noted: 3 days treatment. On the procedure:
as §1

Series [10] has as its system human MCF-7 breast tumors. Put plainly: MCF-7 tumor growth (xenograft) in ovariectomized nude mice. Conditions: 60 mg/kg s.c., 28-day treatment. In kind it is in vivo. The text has this:
FIG. 2 is an illustration of the effect of aminosteroid RM-581-102 (compound 6) on MCF-7 tumor growth. A) Effect of a 28-day treatment on 17β-estradiol (E2)-induced growth of human MCF-7 breast tumors in ovariectomized (OVX) nude mice in accordance with an embodiment of the present disclosure. Tumor sizes are expressed as the percentage of initial tumor area (day 1 of treatment=100%). Data are expressed as the mean±SEM (n=10-12 tumors and 6-7 mice per group). […] B) Initial and final body weight of the mice.

The test system of series [11] is MCF-10A cells (model for normal breast cells). Put plainly: Cell proliferation assay (MTS), MCF-10A. In kind it is cell-based. On the procedure: A selectivity index (SI) for RM-581-102 was calculated as the ratio of its IC50 value in MCF-10A cells, a cell line used as a model for normal breast cells, versus its IC50 value in MCF-7 breast cancer cells (Table 4). […] It would thus appear that the replacement of the 5α-androstane-3α,17β-diol backbone by that of mestranol, is beneficial for the selectivity of these aminosteroid derivatives.
as §1

The test system of series [12] is renal proximal tubule epithelial cells (RPTEC). The series can be described thus: Toxicity on normal cells (MTS), RPTEC. The format is cell-based, human. Conditions: Homo sapiens, RPTEC, normal (kidney) cells; read-out: IC50 (μM) RPTEC (normal cells). Here is the method:
as §1

The nature of another series: in vivo. Conditions: female, Balb/c, mouse.
For series [13] the following is noted: human, microsomes, 1 h, 10 μM, pH 7.4.
Procedure: as §2

“Also recorded” adds a separate entry of the source. Where two headings read alike, the source gives them in different places.

Procedure for in vivo: The plasmatic concentration (AUC) of RM-581-102 was determined following four different methods of administration (s.c., p.o., i.v. and i.p.) at the following concentrations: 60 mg/kg of body weight in 0.1 mL for s.c. and p.o. administration; 2 mg/kg of body weight in 0.02 mL for i.v. caudal administration; and 20 mg/kg of body weight in 0.1 mL for i.p. administration. For the s.c., p.o. and i.p. administrations, RM-581-102 was first dissolved in DMSO followed by the addition of propylene glycol to obtain a final concentration of DMSO of 8%. Regarding the i.v. administration, RM-581-102 was first dissolved in DMSO (8%) followed by the addition of DMA (38%) and propylene glycol (60%). For the i.v. administration, the mice were fasted over a period of 8 h before injection of RM-581-102.
Animals: Six to seven week-old female Balb/c mice weighing approximately 18 g were obtained from Charles-River, Inc (St-Constant, Qc., Canada). The animals were acclimatized to environmental conditions (temperature: 22±3° C.; humidity: 50±20%; 12-h light/12-h dark cycles, lights on at 07:15 h) for at least 5 days before starting the experiment. The animals were housed three per cage and were allowed free access to water and a certified commercial rodent food (Rodent diet #T.2018.15, Harlan Teklad, Madison, Wis., U.S.A.). The experiments with the animals were conducted in an animal facility approved by the Canadian Council on Animal Care (CCAC) and the Association for Assessment and Accreditation of Laboratory Animal Care. The study was performed in accordance with the CCAC Guide for Care and Use of Experimental Animals. Institutional approval was obtained.
Assay: The pharmacokinetic study was carried out following four different methods of administration (s.c., p.o., i.v. and i.p.) of RM-581-102 at the following concentrations: 60 mg/kg of body weight in 0.1 mL for s.c. and p.o. administration; 2 mg/kg of body weight in 0.02 mL for i.v. caudal administration; and 20 mg/kg of body weight in 0.1 mL for i.p. administration. For the s.c., p.o. and i.p. administrations, RM-581-102 was first dissolved in DMSO followed by the addition of propylene glycol to obtain a final concentration of DMSO of 8%. Regarding the i.v. administration, RM-581-102 was first dissolved in DMSO (8%) followed by the addition of DMA (38%) and propylene glycol (60%). For the i.v. administration, the mice were fasted over a period of 8 h before injection of RM-581-102. Blood samples for the determination of RM-581-102 plasma concentrations were collected by cardiac puncture at target intervals ranging from 5 minutes to 24 hours post-dose administration from 3 mice/time point. The blood samples were collected in Microvette® potassium-EDTA (ethylenediamine tetra-acetic acid)-coated tubes (Sarstedt AG & Co, Germany) and centrifuged at 3200 rpm for 10 minutes at 4° C. The plasma was subsequently collected and stored at −80° C. until analysis by liquid chromatography/mass spectrometry/mass spectrometry (LC/MS/MS).
The plasma concentrations of RM-581-102 was determined by LC/MS/MS analysis using a procedure developed at CHUQ (CHUL)—Research Center (Bioanalytical Service). For extraction from the plasma, a plasma sample (100 μL) was transferred to individual tubes and 600 μL of ammonium acetate (1 mM) was added. A methanolic solution (50 μL) containing a deuterated steroid internal standard was then added to each tube. Samples were then transferred on Strata-X SPE columns (Phenomenex, Torrance, Calif., USA) and each column was washed with water and methanol:water (10:90, v/v). RM-581-102 was then eluted with 5 mL of methanol containing 1 mM ammonium acetate.

Take `C#C[C@@]1(O)CC[C@H]2[C@@H]3CCc4cc(OP(=O)(O)O)c(N5CCN(C(=O)[C@@H]6CCCN6C(=O)c6ccc7ccccc7n6)CC5)cc4[C@H]3CC[C@@]21C` [Compound 5, (17β)-17-ethynyl-17-hydroxy-2-{4-[1-(quinolin-2-ylcarbonyl)-L-prolyl]piperazin-1-yl}estra-1,3,5(10)-trien-3-yl dihydrogen phosphate]: the water solubility entry in “Water solubility” is recorded as “significant enhancement of water solubility”. Besides, the IC50 in series [1] was determined as 0.3 ± 0.07 µM; in [3], 4.6 ± 0.7 µM; in series [4], 2.6 ± 0.1 µM; in [5] it was 0.6 ± 0.05 µM; in series [6] it was 1.3 ± 0.05 µM; in [8] it was 0.3 ± 0.05 µM. The molecule also came in with an IC50 in series [9] (Homo sapiens, MCF7, 72 h) of 1.5 ± 0.3 µM. The “metabolic stability (% of remaining compound)” value in [2] is reported as “stability similar to its phenolic counterpart”. For the same molecule, the “cytotoxic activity in screening (cell survival)” value in series [7] was “without adversely affecting the antiproliferative properties; also recorded: only slight differences in their respective levels of activity”.

As to `C#C[C@]1(O)CC[C@H]2[C@@H]3CCc4cc(OC)c(N5CCN(C(=O)[C@@H]6CCCN6C(=O)c6ccc7ccccc7n6)CC5)cc4[C@H]3CC[C@@]21C` [RM-581, {4-[17α-Ethynyl-17I-hydroxy-3-methoxyestra-1,3,5(10)-trien-2-yl]piperazin-1-yl}[(2S)-1-(quinolin-2-ylcarbonyl)pyrrolidin-2-yl]methanone], the “behavioral changes, signs of toxicity and weight loss” value in [10] (compared with control groups) was “no behavioral changes, signs of toxicity and weight loss”. In addition, the “MCF-7 tumor growth (tumor size, % of initial tumor area)” value in series [10] (6 days per week, E2-stimulated OVX nude mice) is on record as “complete blockade of tumor growth; also recorded: significant tumor regression from day 21 up to day 28”. The IC50 is 0.6 ± 0.3 µM in [1]; 16.8 µM in series [11] (Homo sapiens, MCF-10A, model for normal breast cells); 5 ± 0.5 µM in series [3]; above 50 µM in [12]; 3.9 ± 0.9 µM in series [4]; 1.2 ± 0.6 µM in [5] (3 days treatment, MTS). Also, the 50% inhibitory concentration (IC50) was found to be 1.6 ± 0.3 µM in series [6] (3 days treatment, MTS); 0.5 ± 0.05 µM in [8]; 2.6 ± 0.3 µM in series [9]; 1.1 ± 0.1 µM in [9] (listed as RM-581-102). Also, the “times more selective compared to RM-133” value in series [11] (in vitro MCF-7 and MCF-10A cell models) is given as 5.1 times. Further, the “Selectivity Index” value in series [11] (ratio of IC50 in MCF-10A cells versus IC50 in MCF-7 cells) is recorded as 15.3. For the same molecule, the area under the curve AUC(0-t) amounted to 11400 ng·h/mL in the series “in vivo” (ip, 20 mg/kg); 595 ng·h/mL in the series “in vivo” (iv, 2 mg/kg); 5540 ng·h/mL in the series “in vivo” (po, 60 mg/kg); 7760 ng·h/mL in the series “in vivo” (sc, 60 mg/kg). Also, the concentration at 3 h is 5300 ng/mL in the series “in vivo” (ip, 20 mg/kg); 300 ng/mL in the series “in vivo” (iv, 2 mg/kg); 550 ng/mL in “in vivo” (po, 60 mg/kg); 600 ng/mL in “in vivo” (sc, 60 mg/kg). Also, the “metabolic stability (% of remaining compound)” value in series [13] is given as “significantly more stable toward phase-I hepatic metabolism than RM-133”. In addition, in series [8] (T-47D, 1.0 and 5 μM, vs paclitaxel, gemcitabine, fluorouacil, oxaliplatin, irinotecan), the “cytotoxic activity compared with known antineoplastic agents” value is “stronger cytotoxic activities at both concentrations”.

By IC50 is commonly meant the midpoint of a concentration-inhibition curve. A word on the AUC(0-t): it is the area under the concentration-time curve up to a stated or last time point. Read a high AUC(0-t) as high exposure.
